From ChEMBL document CHEMBL3745631, “Discovery of highly potent and selective Bruton's tyrosine kinase inhibitors: Pyridazinone analogs with improved metabolic stability” (Bioorg Med Chem Lett, 2016)

Columns and labels:
[1] = target: Activin receptor type-1 (Homo sapiens) (UniProt Q04771); experiment: Inhibition of ALK2 (unknown origin) at 1 uM
[2] = target: Dual specificity tyrosine-phosphorylation-regulated kinase 1A (Homo sapiens) (UniProt Q13627); experiment: Inhibition of DYRK1A (unknown origin) at 1 uM
[3] = target: Serine/threonine-protein kinase Nek4 (Homo sapiens) (UniProt P51957); experiment: Inhibition of NEK4 (unknown origin) at 1 uM
[4] = target: Misshapen-like kinase 1 (Homo sapiens) (UniProt Q8N4C8); experiment: Inhibition of Mink1 (unknown origin) at 1 uM
[5] = tested on: Salmonella typhimurium; experiment: Genotoxicity in Salmonella typhimurium TA100 by Ames test in presence of S9 fraction; assay type: toxicity, organism-based; settings: salmonella enterica subsp. enterica serovar typhimurium
[6] = target: Tyrosine-protein kinase Fes/Fps (Homo sapiens) (UniProt P07332); experiment: Inhibition of Fes (unknown origin) at 1 uM
Chain of Tyrosine-protein kinase Fes/Fps (Homo sapiens) (P07332 whole entry): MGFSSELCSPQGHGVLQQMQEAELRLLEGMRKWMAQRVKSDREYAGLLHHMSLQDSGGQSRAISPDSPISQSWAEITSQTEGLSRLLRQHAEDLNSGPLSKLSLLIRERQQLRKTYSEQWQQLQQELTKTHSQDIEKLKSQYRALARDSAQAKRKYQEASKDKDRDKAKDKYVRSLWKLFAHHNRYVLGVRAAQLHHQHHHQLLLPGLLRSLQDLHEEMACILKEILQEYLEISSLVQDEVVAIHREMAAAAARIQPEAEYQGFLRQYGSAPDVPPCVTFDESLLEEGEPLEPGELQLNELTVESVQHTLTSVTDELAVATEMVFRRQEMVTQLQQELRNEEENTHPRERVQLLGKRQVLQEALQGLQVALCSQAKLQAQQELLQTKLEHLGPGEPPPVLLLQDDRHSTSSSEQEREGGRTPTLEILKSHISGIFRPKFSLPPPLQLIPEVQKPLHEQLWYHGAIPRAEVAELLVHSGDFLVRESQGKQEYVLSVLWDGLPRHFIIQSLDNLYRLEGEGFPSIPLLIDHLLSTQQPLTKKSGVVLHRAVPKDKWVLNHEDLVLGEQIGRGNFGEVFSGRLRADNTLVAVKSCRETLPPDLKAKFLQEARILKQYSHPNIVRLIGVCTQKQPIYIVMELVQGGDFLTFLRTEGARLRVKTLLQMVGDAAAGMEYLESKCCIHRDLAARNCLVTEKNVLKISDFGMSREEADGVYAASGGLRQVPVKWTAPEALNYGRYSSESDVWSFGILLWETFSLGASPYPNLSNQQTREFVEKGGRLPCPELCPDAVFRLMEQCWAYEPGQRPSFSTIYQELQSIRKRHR

[7] = target: Protein kinase C theta type (Homo sapiens) (UniProt Q04759); experiment: Inhibition of PKCtheta (unknown origin) at 1 uM
Chain of Protein kinase C theta type (Homo sapiens) (Q04759 whole entry, looked up): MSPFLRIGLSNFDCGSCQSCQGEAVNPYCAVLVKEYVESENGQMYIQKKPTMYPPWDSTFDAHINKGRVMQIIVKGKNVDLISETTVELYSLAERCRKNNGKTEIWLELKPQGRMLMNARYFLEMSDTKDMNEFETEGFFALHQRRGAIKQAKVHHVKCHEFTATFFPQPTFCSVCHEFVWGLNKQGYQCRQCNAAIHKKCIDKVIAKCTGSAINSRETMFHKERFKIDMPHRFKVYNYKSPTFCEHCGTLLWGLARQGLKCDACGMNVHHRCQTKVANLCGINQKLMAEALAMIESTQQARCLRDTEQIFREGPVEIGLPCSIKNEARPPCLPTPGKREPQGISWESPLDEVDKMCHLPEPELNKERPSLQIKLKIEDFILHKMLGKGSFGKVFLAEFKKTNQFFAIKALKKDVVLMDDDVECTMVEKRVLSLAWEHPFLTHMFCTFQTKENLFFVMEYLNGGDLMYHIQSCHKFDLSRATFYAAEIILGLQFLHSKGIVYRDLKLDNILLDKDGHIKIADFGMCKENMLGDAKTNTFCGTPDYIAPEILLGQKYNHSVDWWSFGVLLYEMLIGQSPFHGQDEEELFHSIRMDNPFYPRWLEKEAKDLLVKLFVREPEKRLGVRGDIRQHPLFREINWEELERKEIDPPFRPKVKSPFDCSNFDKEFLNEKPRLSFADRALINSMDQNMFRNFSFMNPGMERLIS

[8] = target: Testis-specific serine/threonine-protein kinase 1 (Homo sapiens) (UniProt Q9BXA7); experiment: Inhibition of TSSK1 (unknown origin) at 1 uM
[9] = target: Protein kinase C alpha type (Homo sapiens) (UniProt P17252); experiment: Inhibition of PKC alpha (unknown origin) at 1 uM
[10] = target: Ephrin type-A receptor 7 (Homo sapiens) (UniProt Q15375); experiment: Inhibition of EphA7 (unknown origin) at 1 uM
[11] = target: Muscle, skeletal receptor tyrosine-protein kinase (Homo sapiens) (UniProt O15146); experiment: Inhibition of MusK (unknown origin) at 1 uM
[12] = target: Tyrosine-protein kinase HCK (Homo sapiens) (UniProt P08631); experiment: Inhibition of Hck (unknown origin) at 1 uM
[13] = target: Mitogen-activated protein kinase 13 (Homo sapiens) (UniProt O15264); experiment: Inhibition of p38 delta (unknown origin) at 1 uM
[14] = target: MAP kinase-activated protein kinase 5 (Homo sapiens) (UniProt Q8IW41); experiment: Inhibition of PRAK (unknown origin) at 1 uM
[15] = target: DNA-dependent protein kinase catalytic subunit (Homo sapiens) (UniProt P78527); experiment: Inhibition of DNA-PK (unknown origin) at 1 uM
[16] = target: Dual specificity protein kinase CLK3 (Homo sapiens) (UniProt P49761); experiment: Inhibition of CLK3 (unknown origin) at 1 uM
[17] = tested on: Canis familiaris; experiment: Clearance in dog at 1 mg/kg, iv by LC-MS/MS analysis; assay type: ADME, organism-based, Canis lupus familiaris; settings: in vivo
[18] = target: Calcium/calmodulin-dependent protein kinase type II subunit beta (Homo sapiens) (UniProt Q13554); experiment: Inhibition of CaMK2 beta (unknown origin) at 1 uM
[19] = target: Focal adhesion kinase 1 (Homo sapiens) (UniProt Q05397); experiment: Inhibition of FAK (unknown origin) at 1 uM
Chain of Focal adhesion kinase 1 (Homo sapiens) (Q05397 2-1052 limits assumed): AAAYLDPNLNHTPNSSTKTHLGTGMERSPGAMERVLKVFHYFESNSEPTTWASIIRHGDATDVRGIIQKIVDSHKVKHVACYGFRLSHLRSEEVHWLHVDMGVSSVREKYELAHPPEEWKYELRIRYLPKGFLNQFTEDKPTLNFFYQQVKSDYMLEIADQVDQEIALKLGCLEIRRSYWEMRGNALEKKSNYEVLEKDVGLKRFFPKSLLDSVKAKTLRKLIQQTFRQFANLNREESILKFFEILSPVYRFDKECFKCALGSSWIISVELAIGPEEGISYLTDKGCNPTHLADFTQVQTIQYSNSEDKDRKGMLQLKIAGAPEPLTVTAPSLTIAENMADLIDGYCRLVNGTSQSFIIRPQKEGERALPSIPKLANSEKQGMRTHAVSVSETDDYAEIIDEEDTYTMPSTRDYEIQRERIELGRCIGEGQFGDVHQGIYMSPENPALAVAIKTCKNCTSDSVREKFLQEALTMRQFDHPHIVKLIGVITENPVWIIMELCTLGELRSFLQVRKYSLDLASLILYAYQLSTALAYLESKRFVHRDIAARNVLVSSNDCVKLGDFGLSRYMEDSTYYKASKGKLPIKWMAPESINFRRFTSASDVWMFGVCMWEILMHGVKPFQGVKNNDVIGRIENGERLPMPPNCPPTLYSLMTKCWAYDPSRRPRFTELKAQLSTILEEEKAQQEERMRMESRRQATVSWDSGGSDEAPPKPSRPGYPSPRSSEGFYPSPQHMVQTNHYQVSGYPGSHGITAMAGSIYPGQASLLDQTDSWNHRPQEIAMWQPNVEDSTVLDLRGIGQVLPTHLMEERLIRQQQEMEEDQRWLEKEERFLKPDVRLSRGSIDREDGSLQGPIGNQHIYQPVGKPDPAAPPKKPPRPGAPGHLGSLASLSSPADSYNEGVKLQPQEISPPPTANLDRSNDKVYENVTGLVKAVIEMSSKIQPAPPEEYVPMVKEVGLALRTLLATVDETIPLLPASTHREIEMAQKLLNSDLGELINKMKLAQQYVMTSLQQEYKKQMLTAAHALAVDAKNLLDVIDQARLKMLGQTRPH

[20] = target: Dual specificity mitogen-activated protein kinase kinase 1 (Homo sapiens) (UniProt Q02750); experiment: Inhibition of MEK1 (unknown origin) at 1 uM
[21] = target: High affinity nerve growth factor receptor (Homo sapiens) (UniProt P04629); experiment: Inhibition of TrkA (unknown origin) at 1 uM
[22] = target: Tyrosine-protein kinase CSK (Homo sapiens) (UniProt P41240); experiment: Inhibition of CSK (unknown origin) at 1 uM
[23] = target: Serine/threonine-protein kinase Nek1 (Homo sapiens) (UniProt Q96PY6); experiment: Inhibition of NEK1 (unknown origin) at 1 uM
[24] = target: MAP kinase-activated protein kinase 2 (Homo sapiens) (UniProt P49137); experiment: Inhibition of MAPKAPK2 (unknown origin) at 1 uM
[25] = target: Mitogen-activated protein kinase 10 (Homo sapiens) (UniProt P53779); experiment: Inhibition of JNK3 (unknown origin) at 1 uM
[26] = target: CDK8/Cyclin C (Homo sapiens) (UniProt P49336+P24863); experiment: Inhibition of CDK8/cyclinC (unknown origin) at 1 uM; assay type: protein-complex assay
[27] = target: Mitogen-activated protein kinase kinase kinase kinase 2 (GCK) (Homo sapiens) (UniProt Q12851); experiment: Inhibition of GCK (unknown origin) at 1 uM
Chain of Mitogen-activated protein kinase kinase kinase kinase 2 (GCK) (Homo sapiens) (Q12851 whole entry, looked up): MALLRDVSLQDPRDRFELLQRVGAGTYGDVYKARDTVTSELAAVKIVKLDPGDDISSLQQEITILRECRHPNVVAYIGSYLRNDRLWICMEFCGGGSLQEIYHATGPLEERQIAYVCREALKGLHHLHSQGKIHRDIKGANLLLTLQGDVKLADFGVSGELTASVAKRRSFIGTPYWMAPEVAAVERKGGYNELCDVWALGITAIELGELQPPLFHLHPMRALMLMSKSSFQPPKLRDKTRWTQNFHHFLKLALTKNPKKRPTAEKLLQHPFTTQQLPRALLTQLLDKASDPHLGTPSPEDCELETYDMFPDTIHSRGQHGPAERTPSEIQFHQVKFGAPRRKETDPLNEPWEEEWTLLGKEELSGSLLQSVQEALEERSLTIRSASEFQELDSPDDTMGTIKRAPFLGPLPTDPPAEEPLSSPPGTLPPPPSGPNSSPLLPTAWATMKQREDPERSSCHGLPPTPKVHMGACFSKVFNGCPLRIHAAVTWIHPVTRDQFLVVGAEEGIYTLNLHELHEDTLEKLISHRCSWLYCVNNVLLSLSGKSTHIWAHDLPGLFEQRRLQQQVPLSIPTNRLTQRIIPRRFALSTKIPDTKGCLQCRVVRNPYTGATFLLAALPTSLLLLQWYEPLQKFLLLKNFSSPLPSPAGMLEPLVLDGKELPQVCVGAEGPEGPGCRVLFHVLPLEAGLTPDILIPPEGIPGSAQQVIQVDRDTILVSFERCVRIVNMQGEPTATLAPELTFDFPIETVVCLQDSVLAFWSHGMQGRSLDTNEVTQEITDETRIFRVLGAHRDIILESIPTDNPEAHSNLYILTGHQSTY

[28] = target: Dual specificity protein kinase CLK1 (Homo sapiens) (UniProt P49759); experiment: Inhibition of CLK1 (unknown origin) at 1 uM
Chain of Dual specificity protein kinase CLK1 (Homo sapiens) (P49759 whole entry, looked up): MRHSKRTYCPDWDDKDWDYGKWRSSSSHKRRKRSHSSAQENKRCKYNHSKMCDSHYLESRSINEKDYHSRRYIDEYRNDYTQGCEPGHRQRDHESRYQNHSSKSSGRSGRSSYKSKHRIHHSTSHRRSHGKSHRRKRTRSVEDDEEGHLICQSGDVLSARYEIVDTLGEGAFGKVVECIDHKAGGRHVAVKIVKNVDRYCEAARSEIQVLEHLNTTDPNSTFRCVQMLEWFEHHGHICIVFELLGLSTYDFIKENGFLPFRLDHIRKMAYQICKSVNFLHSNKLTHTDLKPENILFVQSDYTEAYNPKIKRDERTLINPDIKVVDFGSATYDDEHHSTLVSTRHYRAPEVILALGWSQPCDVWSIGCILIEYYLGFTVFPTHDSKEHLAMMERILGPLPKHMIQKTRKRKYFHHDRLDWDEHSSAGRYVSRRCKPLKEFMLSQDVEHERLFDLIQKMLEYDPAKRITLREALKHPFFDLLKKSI

[29] = target: NUAK family SNF1-like kinase 1 (Homo sapiens) (UniProt O60285); experiment: Inhibition of ARK5 (unknown origin) at 1 uM
[30] = target: Mitogen-activated protein kinase kinase kinase 9 (Homo sapiens) (UniProt P80192); experiment: Inhibition of MLK1 (unknown origin) at 1 uM
[31] = target: Mast/stem cell growth factor receptor Kit (Homo sapiens) (UniProt P10721); experiment: Inhibition of Kit (unknown origin) at 1 uM
[32] = target: Death-associated protein kinase 3 (Homo sapiens) (UniProt O43293); experiment: Inhibition of ZIPK (unknown origin) at 1 uM
[33] = target: LIM domain kinase 1 (Homo sapiens) (UniProt P53667); experiment: Inhibition of LIMK1 (unknown origin) at 1 uM
[34] = target: Serine/threonine-protein kinase D1 (PRKD1) (Homo sapiens) (UniProt Q15139); experiment: Inhibition of PKD1 (unknown origin) at 1 uM
[35] = Oral bioavailability in rat at 5 mg/kg by LC-MS/MS analysis; assay type: ADME, organism-based; settings: in vivo
[36] = target: Calcium/calmodulin-dependent protein kinase kinase 2 (Homo sapiens) (UniProt Q96RR4); experiment: Inhibition of CAMKK2 (unknown origin) at 1 uM
Chain of Calcium/calmodulin-dependent protein kinase kinase 2 (Homo sapiens) (Q96RR4 2-588 limits assumed): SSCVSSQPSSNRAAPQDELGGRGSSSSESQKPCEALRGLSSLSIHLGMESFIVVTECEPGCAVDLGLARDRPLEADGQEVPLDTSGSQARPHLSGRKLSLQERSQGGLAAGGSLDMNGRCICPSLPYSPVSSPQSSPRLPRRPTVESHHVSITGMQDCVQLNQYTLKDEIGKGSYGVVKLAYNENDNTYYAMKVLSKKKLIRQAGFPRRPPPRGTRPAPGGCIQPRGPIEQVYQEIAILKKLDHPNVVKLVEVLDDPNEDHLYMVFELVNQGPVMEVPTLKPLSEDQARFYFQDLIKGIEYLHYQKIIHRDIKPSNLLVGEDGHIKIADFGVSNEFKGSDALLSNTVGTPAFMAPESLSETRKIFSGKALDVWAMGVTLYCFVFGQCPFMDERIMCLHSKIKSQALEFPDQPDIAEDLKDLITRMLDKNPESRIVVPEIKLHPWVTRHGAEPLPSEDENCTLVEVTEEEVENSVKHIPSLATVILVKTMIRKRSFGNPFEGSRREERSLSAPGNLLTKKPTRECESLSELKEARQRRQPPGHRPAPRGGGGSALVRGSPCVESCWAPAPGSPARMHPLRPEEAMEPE

[37] = tested on: Hepatocyte; experiment: Intrinsic clearance in human hepatocytes at 1 uM by LC-MS/MS analysis; assay type: ADME, cell-based
[38] = target: Phosphatidylinositol 4,5-bisphosphate 3-kinase catalytic subunit gamma isoform (Homo sapiens) (UniProt P48736); experiment: Inhibition of PI3K-G (unknown origin) at 1 uM
[39] = Inhibition of anti-IgM-stimulated human B cell proliferation
[40] = target: Activin receptor type-2B (Homo sapiens) (UniProt Q13705); experiment: Inhibition of ACVR2B (unknown origin) at 1 uM
Chain of Activin receptor type-2B (Homo sapiens) (Q13705 whole entry): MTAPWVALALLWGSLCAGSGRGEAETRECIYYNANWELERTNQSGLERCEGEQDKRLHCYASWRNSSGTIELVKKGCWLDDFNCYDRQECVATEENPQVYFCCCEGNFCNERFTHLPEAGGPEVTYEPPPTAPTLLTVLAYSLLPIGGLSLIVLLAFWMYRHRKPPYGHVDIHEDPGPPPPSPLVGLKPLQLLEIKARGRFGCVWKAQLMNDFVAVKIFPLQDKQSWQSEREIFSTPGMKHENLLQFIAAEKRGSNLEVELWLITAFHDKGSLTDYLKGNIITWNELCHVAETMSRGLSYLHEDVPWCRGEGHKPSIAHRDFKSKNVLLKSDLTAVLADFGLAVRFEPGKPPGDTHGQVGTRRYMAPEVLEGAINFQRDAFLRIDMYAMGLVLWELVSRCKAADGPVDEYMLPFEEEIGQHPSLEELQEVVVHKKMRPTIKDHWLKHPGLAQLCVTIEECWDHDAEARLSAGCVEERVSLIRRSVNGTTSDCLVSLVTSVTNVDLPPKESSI

[41] = target: Ephrin type-A receptor 2 (Homo sapiens) (UniProt P29317); experiment: Inhibition of EphA2 (unknown origin) at 1 uM
[42] = target: Mitogen-activated protein kinase kinase kinase kinase 5 (Homo sapiens) (UniProt Q9Y4K4); experiment: Inhibition of KHS1 (unknown origin) at 1 uM
[43] = species on record: Homo sapiens; experiment: Inhibition of PKA (unknown origin) at 1 uM
[44] = tested on: Monocyte; experiment: Inhibition of IC-induced IL-1beta release in human monocytes
[45] = target: Serine/threonine-protein kinase N1 (Homo sapiens) (UniProt Q16512); experiment: Inhibition of PRK1 (unknown origin) at 1 uM

inhibition [1]: -2.1%
inhibition [2]: 4.8%
inhibition [3]: 1%
inhibition [4]: 17.8%
inhibition [6]: 7.2%
inhibition [7]: -6.9%
inhibition [8]: 0%
inhibition [9]: -2.1%
inhibition [10]: -2%
inhibition [11]: 1.4%
inhibition [12]: 3%
inhibition [13]: 8.6%
inhibition [14]: 2%
inhibition [15]: 8.5%
inhibition [16]: 2.9%
clearance [17]: 14 mL/min/kg
inhibition [18]: -2.2%
inhibition [19]: 3.6%
inhibition [20]: 4.5%
inhibition [21]: -8%
inhibition [22]: 5.2%
inhibition [23]: 1.5%
inhibition [24]: 10.8%
inhibition [25]: 10.3%
inhibition [26]: 1%
inhibition [27]: -9%
inhibition [28]: 5%
inhibition [29]: -3.8%
inhibition [30]: -7.5%
inhibition [31]: 1.9%
inhibition [33]: -5.5%
inhibition [34]: 1.6%
bioavailability [35]: 26%
inhibition [36]: 8.2%
CLH [37]: < 6 mL/min/kg
inhibition [38]: 2.5%
inhibition [40]: 4.5%
inhibition [41]: 8%
inhibition [42]: 17.3%
inhibition [43]: -4.8%
EC50 [44]: 22 nM
inhibition [45]: -3.7%
SMILES: Cc1c(-c2cc(Nc3cc4n(n3)CCN(C)C4)c(=O)[nH]n2)ccc(F)c1NC(=O)c1cc2ccccc2s1
Activity [5]: Non-toxic
inhibition [32]: -2%
EC50 [39]: 6 nM
